Experimental findings from article PMC6316846, “Pretargeted Imaging with Gallium-68—Improving the Binding Capability by Increasing the Number of Tetrazine Motifs” (Pharmaceuticals, 2018) are described below.

Like-named read-outs stand apart in the source and are kept apart here.

A short description of data set [1]: Serum protein binding, Sephadex G-50 size exclusion. The format is in vitro ADME. Conditions: ^68Ga-labelled compound, human serum, 37 °C, mean ± SD (n = 3). The method, then:
Serum protein binding was determined using Sephadex G-50 (GE Healthcare Vienna, Austria) size exclusion chromatography. Aliquots (50 µL, n = 3) of the radioligand solution (~10 µM) were incubated in 450 µL freshly prepared human serum or 450 µL PBS (controls) and were kept at 37 °C. After 1, 2, and 4 h aliquots (25 µL) were directly transferred to the column (MicroSpin G-50, GE Healthcare) and after centrifugation (2 min, 2000 rcf) the column containing the free conjugate and the eluate containing the protein-bound conjugate were measured in the gamma counter. The percent of activity in both fractions was calculated thereafter.
For orientation: In gel filtration, larger molecules generally elute earlier.

The target in another data set is immobilized RTX-TCO. Nature of the data set: Competitive binding assay on immobilized RTX-TCO. The note with it: non-labelled conjugate as competitor, 30 min RT. The protocol: Binding on immobilized RTX-TCO was conducted using high protein-binding capacity Nunc MaxiSorp™ 96-well plates (Thermo Fisher Scientific, Vienna, Austria). Coating was performed by adding 20 µg of antibody (RTX or RTX-TCO) dissolved in 100 µL coating buffer (0.1 M NaHCO3, pH 8.5) to each well and after 2 h incubation at RT the plate was left at 4 °C overnight both under the exclusion of light. After removal of the coating solution 200 µL of blocking buffer (1% BSA in PBS) was added, left for 1 h at room temperature and subsequently each well was washed twice with 200 µL binding buffer (0.1% BSA in PBS). Hereafter, the radioligand was mixed with increasing concentrations of the competitor (=non-labelled conjugate), diluted in binding buffer and 100 µL of the mixture was added to each well. After 30 min at RT the supernatant was removed, each well was washed three times with 150 µL binding buffer and the coating film was finally detached with 2 × 150 µL of hot (80 °C) 2 N sodium hydroxide (NaOH). The NaOH fraction was taken for gamma counter measurement to determine the percentage of binding in contrast to the standard followed by non-liner curve fitting using Origin 6.1 software (Origin Inc., Northampton, MA, USA) to calculate the apparent half maximum inhibitory concentration of the competitor (n = 3, 4 replicates).

Data set [2] is described as follows: Distribution coefficient (logD), octanol/PBS. The format is physicochemical. Conditions: mean ± SD (n = 3); for LogD (pH 7.4): ^68Ga-labelled compound. The protocol:
To determine the distribution of the ^68Ga-labelled conjugates between an organic (octanol) and aqueous (PBS) layer, aliquots (50 µL) of the tracers (~5 µM) were diluted in 1 mL of octanol/PBS (1:1, v/v). The mixture was vortexed at 1400 rpm (MS 3 basic vortexer, IKA, Staufen, Germany) for 15 min at RT followed by centrifugation for 2 min at 4500 rpm. Subsequently, aliquots (50 µL) of both layers were collected and measured in the gamma counter (Wizard2 3”, Perkin Elmer, Waltham, MA, USA) followed by logD calculation (n = 3, six replicates).

The subject of data set [3] is CD20-expressing Raji cells. Nature of the data set: FACS analysis of antibody binding to Raji cells. Format: cell-based. The note with it: antibody at 20 µM, APC-labelled anti-human IgG Fc secondary antibody. The protocol:
The humanoid lymphoblast-like CD20-expressing B-lymphocyte cells (Raji cells) were purchased from American Type Culture Collection (ATCC, Manassas, VA, USA). Flow cytometric analysis of CD20 expression was evaluated on (Raji cells) adjusted to 5 × 10^5 cells/sample in DMEM (including 10% FCS, 1% Pen/Strep). Cells were incubated with FC-Block (containing CD16/CD32 (1:200), e-Bioscience, Thermo Fisher Scientific, Vienna, Austria) for 15 min at 4 °C in order to avoid signals from non-specific binding. The following antibodies were used: RTX-TCO and RTX, both at 20 µM (f. c.). As secondary antibody a APC-labelled anti-human IgG Fc (clone: HP6017; BioLedgend, San Diego, CA, USA) at a dilution of 1:100 was used. Antibodies were incubated for at least 15 min at 4 °C. FACS analysis was performed on BD LSRFortessa™ (Cell Analyzer, BD Bioscience, San Jose, CA, USA). As internal control samples unstained or stained with either primary or secondary antibodies were analyzed. FACS-data was analyzed by FlowJo v10 software.
On the technique in general: Flow cytometry measures light scatter and fluorescence of single cells or particles in a stream.

Setting [4] is: radioligand [^68Ga]Ga-Tz-dimer, read-out: Competitor concentration reducing binding of [^68Ga]Ga-Tz-dimer by 50%.
Setting [5] is: radioligand [^68Ga]Ga-Tz-monomer, read-out: Competitor concentration reducing binding of [^68Ga]Ga-Tz-monomer by 50%.
The mark [6] stands for this setting: radioligand [^68Ga]Ga-Tz-trimer, read-out: Competitor concentration reducing binding of [^68Ga]Ga-Tz-trimer by 50%.

In the case of `C/C1=C/C(=O)N(O)CCCC(NC(=O)CCOCCOCCOCCOCCOCCC(=O)NCc2ccc(-c3nncnn3)cc2)C(=O)OCC/C(C)=C\C(=O)N(O)CCCC(NC(=O)CCOCCOCCOCCOCCOCCC(=O)NCc2ccc(-c3nncnn3)cc2)C(=O)OCC/C(C)=C\C(=O)N(O)CCCC(NC(=O)CCOCCOCCOCCOCCOCCC(=O)NCc2ccc(-c3nncnn3)cc2)C(=O)OCC1` (centres unmarked) [Tz-trimer, FSC-(PEG5-Tz)3], in data set [1] (1 h), the “Protein Binding (%) 1 h” value was determined as 70.5 ± 0.7%. The “Protein Binding (%) 2 h” value in data set [1] (2 h) stood at 69.5 ± 0.4%. For the same molecule, the “Protein Binding (%) 4 h” value in data set [1] (4 h) is on record as 67.8 ± 0.4%. Besides, the IC50 came out at 92 ± 15 nM at immobilized RTX-TCO (setting [4]), 100 ± 10 nM at immobilized RTX-TCO (setting [5]) and 147 ± 49 nM at immobilized RTX-TCO (setting [6]). Besides, the “LogD (pH 7.4)” value in data set [2] is listed as −1.00 ± 0.06.

“TCO-modified RTX: anti-CD20 monoclonal antibody rituximab modified with trans-cyclooctene (TCO-NHS ester)”: the “Target specificity by FACS” value in data set [3] is reported as “high target specificity”.

By fraction unbound is commonly meant the share of the substance not bound to proteins or other matrix. For orientation: logD means lipophilicity at a set pH, counting ionised and neutral species. Read a high logD as higher lipophilicity. As to `CC(=O)NC1CCCN(O)C(=O)/C=C(/C)CCOC(=O)C(NC(=O)CCOCCOCCOCCOCCOCCC(=O)NCc2ccc(-c3nncnn3)cc2)CCCN(O)C(=O)/C=C(/C)CCOC(=O)C(NC(C)=O)CCCN(O)C(=O)/C=C(/C)CCOC1=O` (centres unmarked) [Tz-monomer, DAFC-PEG5-Tz], the fraction unbound at 1 h in data set [1] (1 h) was 0.382. The molecule also showed a fraction unbound at 2 h in data set [1] (2 h) of 0.362. This molecule had a fraction unbound at 4 h in data set [1] (4 h) of 0.36. In addition, the figures for the IC50 at immobilized RTX-TCO (setting [4]), at immobilized RTX-TCO (setting [5]) and on immobilized RTX-TCO (setting [6]) were 865 ± 263 nM, 486 ± 52 nM and 2990 ± 1660 nM, respectively. In addition, the logD in data set [2] (octanol/PBS (1:1, v/v), pH 7.4, ^68Ga-labelled compound) is -1.64 ± 0.02.

For the molecule “rituximab [non-modified RTX, reference compound]”, the “Target specificity by FACS” value in data set [3] is reported as “high target specificity”.

Turning to `CC(=O)NC1CCCN(O)C(=O)/C=C(/C)CCOC(=O)C(NC(=O)CCOCCOCCOCCOCCOCCC(=O)NCc2ccc(-c3nncnn3)cc2)CCCN(O)C(=O)/C=C(/C)CCOC(=O)C(NC(=O)CCOCCOCCOCCOCCOCCC(=O)NCc2ccc(-c3nncnn3)cc2)CCCN(O)C(=O)/C=C(/C)CCOC1=O` (centres unmarked) [Tz-dimer, MAFC-(PEG5-Tz)2], the “Protein Binding (%) 1 h” value in data set [1] (1 h) was determined as 67.0 ± 2.4%. In data set [1] (2 h), the “Protein Binding (%) 2 h” value came out at 65.9 ± 1.3%. Also, the “Protein Binding (%) 4 h” value in data set [1] (4 h) came to 68.4 ± 0.3%. Also, the IC50 on immobilized RTX-TCO (setting [4]) came out at 95 ± 25 nM; at immobilized RTX-TCO (setting [5]) it was 112 ± 6 nM; on immobilized RTX-TCO (setting [6]), 258 ± 60 nM. Also, in data set [2], the “LogD (pH 7.4)” value is recorded as −1.35 ± 0.01.
